In the oligonucleotide strings, read from the 5' end, every base follows the letter of its sugar. An asterisk marks phosphorothioate; unmarked linkages are phosphodiester. Other units and linkages are bracketed, terminal groups are in braces. A string of capitals states the bases alone. {NAG37} = N-acetyl-galactosamine tridentate targeting ligand (NAG37); [invAb] = inverted abasic unit; m = 2'-O-methyl; f = 2'-fluoro
Assays:
ANGPTL3 protein = assay: Example 10: serum ANGPTL3 protein by ELISA in mice; type: in vivo; conditions: 0.5 mg/kg single SC injection day 1, female C57bl/6 mice, n=3, ratio to D5W control
Method: (§1) To assess the in vivo activity of further ANGPTL3 RNAi agents that are designed to target position 304 on the ANGPTL3 gene, six- to eight-week-old female C57bl/6 mice were used. Pre-dose serum samples were taken at day −1 after a four hour fast. At day 1, each mouse was given a single subcutaneous administration of 200 μl containing 0.5 mg/kg (mpk) of an ANGPTL3 RNAi agent in D5W (dextrose in 5% water), or control (D5W) with no RNAi agent, according to the dosing groups recited in Table 47.
(§2) Each of the RNAi agents included a modified sequence and an N-acetyl-galactosamine-containing targeting ligand conjugated to the 5′ terminal end of the sense strand. (See Tables 3, 4, and 5 for modified sequences and targeting ligand structures). As noted above, each of the ANGPTL3 RNAi agents dosed in this study included nucleotide sequences designed to target the ANGPTL3 gene at position 304. The injections were performed between the skin and muscle (i.e. subcutaneous injections) into the loose skin over the neck and shoulder area. Three (3) mice in each group were tested (n=3). Serum was collected on days 8, 15, 22, 29, and for some groups on day 36 (i.e., Groups 1, 2, and 9-13 only). Mice were fasted for four hours prior to each collection. ANGPTL3 protein levels in serum were measured by ELISA assay (R&D Systems), according to the manufacturer's recommendations. Triglycerides, total cholesterol, high-density lipoprotein (HDL), and low-density lipoprotein (LDL) in serum were measured on a Cobas® Integra 400 (Roche Diagnostics), according to the manufacturer's recommendations.
(§3) The ANGPTL3 protein levels, triglyceride levels, total cholesterol levels, HDL levels, and LDL levels for each animal were normalized. For normalization, the level of ANGPTL3 protein, triglyceride, HDL, and total cholesterol, respectively, for each animal at a time point, was divided by the pre-treatment level of expression in that animal (in this case at day −1) to determine the ratio of expression “normalized to pre-treatment.” Expression at a specific time point was then normalized to the D5W control group by dividing the “normalized to pre-treatment” ratio for an individual animal by the mean “normalized to pretreatment” ratio of all mice in the D5W control group.

ANGPTL3 gene [1] = assay: Example 10: serum total cholesterol in mice; type: in vivo; conditions: 0.5 mg/kg single SC injection day 1, female C57bl/6 mice, n=3, ratio to D5W control
Method: as §1, §2, §3

ANGPTL3 gene [2] = assay: Example 10: serum triglycerides in mice; type: in vivo; conditions: 0.5 mg/kg single SC injection day 1, female C57bl/6 mice, n=3, ratio to D5W control
Method: as §1, §2, §3

ANGPTL3 gene [3] = assay: Example 10: serum HDL in mice; type: in vivo; conditions: 0.5 mg/kg single SC injection day 1, female C57bl/6 mice, n=3, ratio to D5W control
Method: as §1, §2, §3

ANGPTL3 gene [4] = assay: Example 10: serum LDL in mice; type: in vivo, C57bl/6 mice; conditions: 0.5 mg/kg sc
Method: as §1, §2, §3

Substance: AD05791: RNAi agent duplex: antisense AM07624-AS, sense AM07234-SS (antisense mU*fA*mCfUmGfAmUfCmAfAmAfUmAfUmGfUmUfGmA*fG*mC; sense {NAG37}*[invAb]*mGmCmUmCmAmAmCmAfUfAfUmUmUmGmAmUmCmAmGmUmA*[invAb])
- Average ANGPTL3 Protein Normalized to Pre-Treatment and Control (ANGPTL3 protein; Day 8): 0.145
- Average ANGPTL3 Protein Normalized to Pre-Treatment and Control (ANGPTL3 protein; Day 15): 0.170
- Average ANGPTL3 Protein Normalized to Pre-Treatment and Control (ANGPTL3 protein; Day 22): 0.214
- Average ANGPTL3 Protein Normalized to Pre-Treatment and Control (ANGPTL3 protein; Day 29): 0.246
- Average Total Cholesterol Normalized to Pre-Treatment and Control (ANGPTL3 gene [1]; Day 8): 0.664
- Average Total Cholesterol Normalized to Pre-Treatment and Control (ANGPTL3 gene [1]; Day 15): 0.694
- Average Total Cholesterol Normalized to Pre-Treatment and Control (ANGPTL3 gene [1]; Day 22): 0.631
- Average Total Cholesterol Normalized to Pre-Treatment and Control (ANGPTL3 gene [1]; Day 29): 0.677
- Average Triglycerides Normalized to Pre-Treatmen and Control (ANGPTL3 gene [2]; Day 8): 1.125
- Average Triglycerides Normalized to Pre-Treatmen and Control (ANGPTL3 gene [2]; Day 15): 0.930
- Average Triglycerides Normalized to Pre-Treatmen and Control (ANGPTL3 gene [2]; Day 22): 1.631
- Average Triglycerides Normalized to Pre-Treatmen and Control (ANGPTL3 gene [2]; Day 29): 0.854
- Average HDL Normalized to Pre-Treatment and Control (ANGPTL3 gene [3]; Day 8): 0.632
- Average HDL Normalized to Pre-Treatment and Control (ANGPTL3 gene [3]; Day 15): 0.674
- Average HDL Normalized to Pre-Treatment and Control (ANGPTL3 gene [3]; Day 22): 0.563
- Average HDL Normalized to Pre-Treatment and Control (ANGPTL3 gene [3]; Day 29): 0.679
- Avg LDL Normalized to Pre-Treatment and Control (ANGPTL3 gene [4]; Day 8): 0.878
- Avg LDL Normalized to Pre-Treatment and Control (ANGPTL3 gene [4]; Day 15): 0.744
- Avg LDL Normalized to Pre-Treatment and Control (ANGPTL3 gene [4]; Day 22): 0.848
- Avg LDL Normalized to Pre-Treatment and Control (ANGPTL3 gene [4]; Day 29): 0.755

— patent publication US12729377B2, “RNAi agents and compositions for inhibiting expression of angiopoietin-like 3 (ANGPTL3), and methods of use” (Arrowhead Pharmaceuticals, Inc., priority 2017, dated 2026)
